What all share (assay): Post-emergence efficacy, glasshouse spray test
Type in all cases: in vivo

Assay [1] relates to Lolium perenne (LOLPE). The conditions noted are these: Lolium perenne, post-emergence, 312 h; application rate 1000 g/Ha; evaluated after 13 days; read-out: Control of weed species LOLPE after post-emergence application (100=total damage to plant; 0=no damage to plant). In outline: (§1)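 Efficacy was rated 13 days post-treatment on a 0–100 damage scale. Treatment was a post-emergence spray on plants raised 14 days in soil at 24/16 °C, 14 h photoperiod and 65% humidity.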

Assay [2] concerns Setaria faberi (SETFA). The conditions noted are these: Setaria faberi, post-emergence, 312 h; application rate 1000 g/Ha; evaluated after 13 days; read-out: Control of weed species SETFA after post-emergence application (100=total damage to plant; 0=no damage to plant). In outline:
as §1

Assay [3] has as its system Amaranthus palmeri (AMAPA). The conditions noted are these: Amaranthus palmeri, post-emergence, 312 h; application rate 1000 g/Ha; evaluated after 13 days; read-out: Control of weed species AMAPA after post-emergence application (100=total damage to plant; 0=no damage to plant). In outline:
as §1

For assay [4], the system named is Ipomoea hederacea (IPOHE). The conditions noted are these: Ipomoea hederacea, post-emergence, 312 h; application rate 1000 g/Ha; evaluated after 13 days; read-out: Control of weed species IPOHE after post-emergence application (100=total damage to plant; 0=no damage to plant). A digest of the protocol:
as §1

The test system of assay [5] is Digitaria sanguinalis (DIGSA). The conditions noted are these: Digitaria sanguinalis, post-emergence, 312 h; application rate 1000 g/Ha; evaluated after 13 days; read-out: Control of weed species DIGSA after post-emergence application (100=total damage to plant; 0=no damage to plant). In outline: as §1
The subject of assay [6] is Echinochloa crus-galli (ECHCG). The conditions noted are these: Echinochloa crus-galli, post-emergence, 312 h; application rate 1000 g/Ha; evaluated after 13 days; read-out: Control of weed species ECHCG after post-emergence application (100=total damage to plant; 0=no damage to plant). A digest of the protocol:
as §1

In assay [7] the test system is Chenopodium album (CHEAL). The conditions noted are these: Chenopodium album, post-emergence, 312 h; application rate 1000 g/Ha; evaluated after 13 days; read-out: Control of weed species CHEAL after post-emergence application (100=total damage to plant; 0=no damage to plant). In outline:
as §1

The test system of assay [8] is Euphorbia heterophylla (EPHHL). The conditions noted are these: Euphorbia heterophylla, post-emergence, 312 h; application rate 1000 g/Ha; evaluated after 13 days; read-out: Control of weed species EPHHL after post-emergence application (100=total damage to plant; 0=no damage to plant). In outline:
as §1

For assay [9], the system named is Eleusine indica (ELEIN). The conditions noted are these: Eleusine indica, post-emergence, 312 h; application rate 1000 g/Ha; evaluated after 13 days; read-out: Control of weed species ELEIN after post-emergence application (100=total damage to plant; 0=no damage to plant). A digest of the protocol: as §1

Each structure is given as a SMILES string. Structures can show the parent of a compound that is named as a salt.

For 13 compounds, pest or weed control results are on record in patent publication US20220046923A1, “HERBICIDAL CINNOLINIUM COMPOUNDS” (SYNGENTA CROP PROTECTION AG, priority 2018, published 2022).

With `O=S(=O)([O-])CC[n+]1ccc2cccc(Cl)c2n1` [Compound A22], the pest or weed control at 1000 g/ha was 20% in [1]; 30% in [2]; 70% in assay [3]; 20% in assay [4]; 50% in assay [5]; 40% in assay [6]. In addition, the pest or weed control at 1000 g/ha in assay [7], in [8] and in [9] was 70% in each case.
As for `N[C@@H](C[n+]1ccc2ccccc2n1)C(=O)[O-]` [Compound A23, (2S)-2-amino-3-cinnolin-2-ium-2-yl-propanoic Acid 2,2,2-trifluoroacetate], the pest or weed control at 1000 g/ha came to 10% in [1]; 40% in [2]; 60% in assay [3]; 20% in [4]; 40% in assay [5]; 30% in assay [6]. Moreover, the pest or weed control at 1000 g/ha amounted to 30% in [7], 30% in [8] and 20% in assay [9].
In the case of `O=S(=O)([O-])CC[n+]1ccc2ccccc2n1` [Compound A24, 2-cinnolin-2-ium-2-ylethanesulfonate], the pest or weed control at 1000 g/ha in [1] was 40%; in assay [2] it was 60%; in assay [3] it was 60%; in assay [4], 80%; in assay [5], 80%; in assay [6], 40%. Further, the pest or weed control at 1000 g/ha in assay [7] came to 60%; in assay [8], 70%; in [9], 80%.
For `O=S(=O)([O-])CCCC[n+]1ccc2ccccc2n1` [Compound A25], the pest or weed control at 1000 g/ha in assay [1] was 50%; in assay [2] it was 30%; in assay [3], 50%; in assay [4], 50%; in assay [5], 20%; in assay [6], 0%. Further, the pest or weed control at 1000 g/ha in assay [7] worked out at 60%; in assay [8] it was 30%; in assay [9], 60%.
Consider `O=S(=O)([O-])OCC[n+]1ccc2ccccc2n1` [Compound A26], for which the pest or weed control at 1000 g/ha in [1] worked out at 60%; in assay [2], 60%; in assay [3], 100%; in assay [4], 70%; in [5], 70%; in assay [6] it was 30%. Besides, the pest or weed control at 1000 g/ha in assay [7] was determined as 70%; in assay [8] it was 90%; in assay [9], 70%.
As to `O=S(=O)([O-])OCCC[n+]1ccc2ccccc2n1` [Compound A27], the pest or weed control at 1000 g/ha was 40% in assay [1]; 70% in assay [2]; 100% in [3]; 50% in assay [4]; 70% in assay [5]; 50% in [6]. The pest or weed control at 1000 g/ha in assay [7] came to 90%; in assay [8], 60%; in assay [9], 80%.
For the compound `O=S(=O)([O-])CC(O)C[n+]1ccc2ccccc2n1` (stereo not drawn) [Compound A28], the pest or weed control at 1000 g/ha in [1] came out at 60%; in assay [2] it was 50%; in [3], 90%; in assay [4], 60%; in [5], 60%; in assay [6], 40%. The figures for the pest or weed control at 1000 g/ha in [7], in [8] and in assay [9] were 70%, 80% and 80%, respectively.
With `CS(=O)(=O)[N-]C(=O)CCC[n+]1ccc2ccccc2n1` [Compound A30], the pest or weed control at 1000 g/ha was 10% in assay [1]; 20% in assay [2]; 70% in assay [3]; 10% in assay [4]; 20% in assay [5]; 10% in assay [6]. In addition, the results for the pest or weed control at 1000 g/ha in assay [7], in [8] and in [9] were 60%, 50% and 20%, respectively.
For the compound `O=S(=O)([O-])OC[n+]1ccc2ccccc2n1` [Compound A31, cinnolin-2-ium-2-ylmethyl hydrogen sulfate], the pest or weed control at 1000 g/ha came to 0% in assay [1]; 0% in assay [2]; 30% in assay [3]; 30% in [4]; 0% in assay [5]; 0% in assay [6]. Also, the pest or weed control at 1000 g/ha worked out at 20% in assay [7], 30% in assay [8] and 0% in assay [9].
For `Cc1ccc2n[n+](CCS(=O)(=O)[O-])ccc2c1` [Compound A32], the pest or weed control at 1000 g/ha in assay [1] stood at 30%; in assay [2], 60%; in assay [3], 90%; in [4], 70%; in assay [5], 70%; in assay [6] it was 80%. Besides, the pest or weed control at 1000 g/ha in [7], in [8] and in assay [9] was 90% each time.
Consider `COc1ccc2n[n+](CCS(=O)(=O)[O-])ccc2c1` [Compound A37], for which the pest or weed control at 1000 g/ha in assay [1] came to 20%; in assay [2], 40%; in assay [3], 0%; in assay [4], 10%; in assay [5] it was 60%; in assay [6], 50%. For the same compound, the pest or weed control at 1000 g/ha amounted to 0% in [7], 20% in [8] and 60% in [9].
For the compound `COc1c[n+](CCS(=O)(=O)[O-])nc2ccccc12` [Compound A38], the pest or weed control at 1000 g/ha in assay [1] came to 10%; in [2], 10%; in [3] it was 20%; in assay [4], 30%; in assay [5], 20%; in assay [6], 30%. Further, the pest or weed control at 1000 g/ha turned out to be 40% in [7], 30% in assay [8] and 10% in assay [9].
As for `O=S(=O)([O-])CCC[n+]1cc(C(Cl)Cl)c2ccccc2n1` [Compound A39, 3-[4-(dichloromethyl)cinnolin-2-ium-2-yl]propane-1-sulfonate], the pest or weed control at 1000 g/ha in assay [1] came to 0%; in [2], 0%; in assay [3] it was 10%; in assay [4], 30%; in assay [5], 10%; in assay [6], 10%. Also, the pest or weed control at 1000 g/ha in [7] came to 20%; in assay [8], 40%; in [9], 10%.
